From patent publication US20150218172A1, “Pyrrolo[2,3-D]Pyrimidine Tropomyosin-Related Kinase Inhibitors” (PFIZER LIMITED, priority 2012, published 2015) come the findings set out here.

The structures appear in SMILES notation.

The target of this assay is T1, TrkA (Homo sapiens, UniProt P04629).
T1 construct: aa 441-796; His; purchased Invitrogen PV3144
T1 sequence (P04629 441-796): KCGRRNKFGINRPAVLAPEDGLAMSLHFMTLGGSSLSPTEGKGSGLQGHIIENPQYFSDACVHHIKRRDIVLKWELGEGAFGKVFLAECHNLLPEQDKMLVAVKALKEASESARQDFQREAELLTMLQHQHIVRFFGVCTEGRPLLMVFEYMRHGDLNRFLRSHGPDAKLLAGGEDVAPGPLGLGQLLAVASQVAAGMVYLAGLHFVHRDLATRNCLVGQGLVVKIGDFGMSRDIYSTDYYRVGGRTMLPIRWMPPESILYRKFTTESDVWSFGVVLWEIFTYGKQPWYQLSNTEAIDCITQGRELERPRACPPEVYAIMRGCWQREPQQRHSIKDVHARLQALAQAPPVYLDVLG
The assay is described as follows: Isolated TRK enzyme assay (HTRF KinEASE-TK kit), PV3144 TrkA enzyme assay. Type of assay: biochemical. Conditions: PV3144 TrkA enzyme assay, recombinant His-tagged cytoplasmic domain aa 441-796, 4 nM enzyme, 40 uM ATP; arithmetic mean where more than one reading; read-out: Trka enzyme (IC50). The protocol:
Isolated TRK Enzyme assays use the HTRF KinEASE-TK kit (Cisbio Cat#62TK0PEJ) with recombinant His-tagged cytoplasmic domains of each TRK receptor sourced from Invitrogen (see table below). This activity-assay measures the phosphorylation of tyrosine residues within a substrate from the HTRF kit which has been validated by Cisbio for a variety of tyrosine kinases including the TRK receptors.
0.5 mM stock solutions of test compounds are prepared and serially diluted in 100% DMSO. A standard curve using the compound of Example 135 disclosed in WO2005/116035 of 150 uM is also prepared on each test plate. High percentage effect (HPE) is defined by 150 uM (using the compound of Example 135 as disclosed in WO2005/116035) and 0% effect (ZPE) is defined by 100% DMSO. Greiner low volume black plates containing 0.2 ul of serially diluted compound, standard and HPE/ZPE are created using the Bravo nanolitre dispenser.
1X enzyme buffer is prepared from 5X Enzymatic Buffer from the Cisbio KinEASE TK kit using MilliQ water. The buffer is then supplemented with 10 mM MgCl and 2 mM DTT (both from Sigma). In the case of TRKB, the buffer is also supplemented with 125 nM Supplement Enzymatic Buffer (SEB) from the Cisbio kit.
2X FAC of enzyme and 2X FAC ATP diluted in 1X complete enzyme buffer is incubated at room temperature for 20 minutes to preactivate the enzyme. Following this preactivation step, 5 ul/well of enzyme+ATP mix is added using a Multidrop Micro to the assay plate, spotted with 0.2 ul 100% DMSO compound. This is left for 20 mins at room temperature before adding 5 ul of 2 uM TK-substrate-Biotin (from the Cisbio kit) diluted in 1X enzyme buffer (1 uM FAC) using the Multidrop Micro. The reaction is incubated at room temperature for the optimized assay reaction time (see table). The reaction is stopped by adding 10 ul/well HTRF Detection Buffer containing 0.25 uM Streptavidin-XL665 (0.125 uM FAC) and 1:200 TK Antibody-Cryptate using a Multidrop.
After the Detection Reagent addition, plates are covered and incubated at room temperature for 60 minutes. HTRF signal is read using an Envision reader, measured as a ratio of emissions at two different wavelengths, 620 nm and 665 nm. […] Test compound data are expressed as percentage inhibition defined by HPE and ZPE values for each plate. Percentage inhibition in the presence of test compound is plotted against compound concentration on a log scale to determine an IC50 from the resultant sigmoid curve.
Below are TrkA IC50 data generated using the PV3144 TrkA enzyme assay. Where more than one reading was taken, the arithmetic mean is presented.
On to `CC(CO)n1cc(C(=O)c2ccnc(NC(=O)Cc3ccc(C#N)cc3)c2)c2cncnc21` (racemic) [Example 32, 2-(4-cyanophenyl)-N-(4-{[7-(1-hydroxypropan-2-yl)-7H-pyrrolo[2,3-d]pyrimidin-5-yl]carbonyl}pyridin-2-yl)acetamide], for which the IC50 was 101 nM.

Regarding `CC(CO)n1cc(C(=O)c2ccnc(NC(=O)Cc3ccc(C#N)cc3)c2)c2cncnc21` (single isomer, unassigned) [Example 33, 2-(4-cyanophenyl)-N-(4-{[7-(1-hydroxypropan-2-yl)-7H-pyrrolo[2,3-d]pyrimidin-5-yl]carbonyl}pyridin-2-yl)acetamide], the IC50 worked out at 2560 nM.

Turning to `CC(CO)n1cc(C(=O)c2ccnc(NC(=O)Cc3ccc(C#N)cc3)c2)c2cncnc21` (single isomer, unassigned) [Example 34, 2-(4-cyanophenyl)-N-(4-{[7-(1-hydroxypropan-2-yl)-7H-pyrrolo[2,3-d]pyrimidin-5-yl]carbonyl}pyridin-2-yl)acetamide], the IC50 is 332 nM.

In the case of `O=C(Cc1ccc(Cl)cc1)Nc1cc(C(=O)c2cn([C@H]3CC[C@H](O)CC3)c3ncncc23)ccn1` [Example 1, 2-(4-chlorophenyl)-N-(4-{[7-(trans-4-hydroxycyclohexyl)-7H-pyrrolo[2,3-d]pyrimidin-5-yl]carbonyl}pyridin-2-yl)acetamide], the IC50 was 22.8 nM.

As for `N#Cc1ccc(CC(=O)Nc2cc(C(=O)c3cn([C@H]4CC[C@H](O)CC4)c4ncncc34)ccn2)cc1` [Example 2, 2-(4-cyanophenyl)-N-(4-{[7-(trans-4-hydroxycyclohexyl)-7H-pyrrolo[2,3-d]pyrimidin-5-yl]carbonyl}pyridine-2-yl)acetamide], the IC50 was 84 nM.

Take `Cc1cc(C)n(CC(=O)Nc2cc(C(=O)c3cn([C@H]4CC[C@H](O)CC4)c4ncncc34)ccn2)n1` [Example 3, 2-(3,5-dimethyl-1H-pyrazol-1-yl)-N-(4-{[7-(trans-4-hydroxycyclohexyl)-7H-pyrrolo[2,3-d]pyrimidin-5-yl]carbonyl}pyridin-2-yl)acetamide]: the IC50 was 183 nM.

As for `Cc1cc(C)n(CC(=O)Nc2cc(C(=O)c3cn([C@H]4CC[C@@H](O)CC4)c4ncncc34)ccn2)n1` [Example 4, 2-(3,5-dimethyl-1H-pyrazol-1-yl)-N-(4-{[7-(cis-4-hydroxycyclohexyl)-7H-pyrrolo[2,3-d]pyrimidin-5-yl]carbonyl}pyridin-2-yl)acetamide], the IC50 amounted to 74.3 nM.

As to `N#Cc1ccc(CC(=O)Nc2cc(C(=O)c3cn([C@H]4CC[C@@H](O)CC4)c4ncncc34)ccn2)cc1` [Example 5, 2-(4-cyanophenyl)-N-(4-{[7-(cis-4-hydroxycyclohexyl)-7H-pyrrolo[2,3-d]pyrimidin-5-yl]carbonyl}pyridin-2-yl)acetamide], the IC50 came to 75.6 nM.

Consider `O=C(Cc1ccc(Cl)cc1)Nc1cc(C(=O)c2cn([C@H]3CC[C@@H](O)CC3)c3ncncc23)ccn1` [Example 6, 2-(4-chlorophenyl)-N-(4-{[7-(cis-4-hydroxycyclohexyl)-7H-pyrrolo[2,3-d]pyrimidin-5-yl]carbonyl}pyridin-2-yl)acetamide], for which the IC50 stood at 21.3 nM.

Consider `CC(C)(CO)n1cc(C(=O)c2ccc(C#N)c(NC(=O)Cc3ccc(C(F)(F)F)cc3)c2)c2cnc(N)nc21` [Example 7, N-{5-[2-Amino-7-(2-hydroxy-1,1-dimethyl-ethyl)-7H-pyrrolo[2,3-d]pyrimidine-5-carbonyl]-2-cyano-phenyl}-2-(4-trifluoromethyl-phenyl)-acetamide], for which the IC50 is 5.93 nM.

Regarding `CC(C)(CO)n1cc(C(=O)c2ccc(C#N)c(NC(=O)Cc3ccc(Cl)cn3)c2)c2cnc(N)nc21` [Example 8, N-(5-{[2-amino-7-(1-hydroxy-2-methylpropan-2-yl)-7H-pyrrolo[2,3-d]pyrimidin-5-yl]carbonyl}-2-cyanophenyl)-2-(5-chloropyridin-2-yl)acetamide], the IC50 came out at 32 nM.

For `CC(C)(CO)n1cc(C(=O)c2ccc(C#N)c(NC(=O)Cc3ccc(Cl)cc3)c2)c2cnc(N)nc21` [Example 9, N-(5-{[2-amino-7-(1-hydroxy-2-methylpropan-2-yl)-7H-pyrrolo[2,3-d]pyrimidin-5-yl]carbonyl}-2-cyanophenyl)-2-(4-chlorophenyl)acetamide], the IC50 was 11.1 nM.

For `Cc1cc(C(F)(F)F)nn1CC(=O)Nc1cc(C(=O)c2cn(C(C)(C)CO)c3nc(N)ncc23)ccc1C#N` [Example 10, N-(5-{[2-amino-7-(1-hydroxy-2-methylpropan-2-yl)-7H-pyrrolo[2,3-d]pyrimidin-5-yl]carbonyl}-2-cyanophenyl)-2-[5-methyl-3-(trifluoromethyl)-1H-pyrazol-1-yl]acetamide], the IC50 stood at 13.2 nM.

`CC(C)(CO)n1cc(C(=O)c2ccc(C#N)c(NC(=O)Cn3ccc(C(F)(F)F)n3)c2)c2cnc(N)nc21` [Example 11, N-(5-{[2-amino-7-(1-hydroxy-2-methylpropan-2-yl)-7H-pyrrolo[2,3-d]pyrimidin-5-yl]carbonyl}-2-cyanophenyl)-2-[3-(trifluoromethyl)-1H-pyrazol-1-yl]acetamide]: the IC50 came to 11.5 nM.

Consider `CC(C)(CO)n1cc(C(=O)c2ccc(C#N)c(NC(=O)Cn3cc(C(F)(F)F)nn3)c2)c2cnc(N)nc21` [Example 12, N-(5-{[2-amino-7-(1-hydroxy-2-methylpropan-2-yl)-7H-pyrrolo[2,3-d]pyrimidin-5-yl]carbonyl}-2-cyanophenyl)-2-[4-(trifluoromethyl)-1H-1,2,3-triazol-1-yl]acetamide], for which the IC50 amounted to 60.7 nM.

For the compound `C[C@@H](CO)n1cc(C(=O)c2cc(NC(=O)Cc3ccc(Cl)cn3)ccn2)c2cncnc21` [Example 13, 2-(5-chloropyridin-2-yl)-N-[2-({7-[(2S)-1-hydroxypropan-2-yl]-7H-pyrrolo[2,3-d]pyrimidin-5-yl}carbonyl)pyridin-4-yl]acetamide], the IC50 came to 230 nM.

With `C[C@@H](CO)n1cc(C(=O)c2cc(NC(=O)Cn3ccc(C(F)(F)F)n3)ccn2)c2cncnc21` [Example 14, N-[2-({7-[(2S)-1-hydroxypropan-2-yl]-7H-pyrrolo[2,3-d]pyrimidin-5-yl}carbonyl)pyridin-4-yl]-2-[3-(trifluoromethyl)-1H-pyrazol-1-yl]acetamide], the IC50 is 131 nM.

Take `C[C@@H](CO)n1cc(C(=O)c2cc(NC(=O)Cc3ccc(C#N)cc3)ccn2)c2cncnc21` [Example 15, 2-(4-cyanophenyl)-N-[2-({7-[(2S)-1-hydroxypropan-2-yl]-7H-pyrrolo[2,3-d]pyrimidin-5-yl}carbonyl)pyridin-4-yl]acetamide]: the IC50 came out at 94.8 nM.

Take `C[C@@H](CO)n1cc(C(=O)c2cc(NC(=O)Cc3ccc(Cl)cc3)ccn2)c2cncnc21` [Example 16, 2-(4-chlorophenyl)-N-[2-({7-[(2S)-1-hydroxypropan-2-yl]-7H-pyrrolo[2,3-d]pyrimidin-5-yl}carbonyl)pyridin-4-yl]acetamide]: the IC50 is 147 nM.

Consider `C[C@@H](CO)n1cc(C(=O)c2cc(NC(=O)Cc3ccc(C(F)(F)F)cc3)ccn2)c2cncnc21` [Example 17, N-[2-({7-[(2S)-1-hydroxypropan-2-yl]-7H-pyrrolo[2,3-d]pyrimidin-5-yl}carbonyl)pyridin-4-yl]-2-[4-(trifluoromethyl)phenyl]acetamide], for which the IC50 came out at 72.2 nM.

As for `C[C@@H](CO)n1cc(C(=O)c2cc(NC(=O)Cc3ccc(F)cn3)ccn2)c2cncnc21` [Example 18, 2-(5-fluoropyridin-2-yl)-N-[2-({7-[(2S)-1-hydroxypropan-2-yl]-7H-pyrrolo[2,3-d]pyrimidin-5-yl}carbonyl)pyridin-4-yl]acetamide], the half-inhibitory concentration (IC50) is 202 nM.

On to `C[C@H](CO)n1cc(C(=O)c2cc(NC(=O)Cc3cccc(C(F)(F)F)c3)ccn2)c2cncnc21` [Example 19, N-[2-({7-[(2R)-1-hydroxypropan-2-yl]-7H-pyrrolo[2,3-d]pyrimidin-5-yl}carbonyl)pyridin-4-yl]-2-[3-(trifluoromethyl)phenyl]acetamide], for which the IC50 came to 97.6 nM.

Regarding `Cc1cc(C(F)(F)F)nn1CC(=O)Nc1ccnc(C(=O)c2cn([C@@H](C)CO)c3ncncc23)c1` [Example 20, N-[2-({7-[(2S)-1-hydroxypropan-2-yl]-7H-pyrrolo[2,3-d]pyrimidin-5-yl}carbonyl)pyridin-4-yl]-2-[5-methyl-3-(trifluoromethyl)-1H-pyrazol-1-yl]acetamide], the IC50 came out at 120 nM.
